# Data as given in patent US20100111908A1, “Induction of Renal Cells for Treatment of Kidney Disease” (priority 2008, published 2010).
# Legend:
# [1] = biological target: T1, CaR (Homo sapiens, UniProt P41180); settings: activation of CaR; Olszak et al., 2000; cited from earlier work
# T1 construct: host or cells: monocytes
# T1 sequence (P41180 20-1078): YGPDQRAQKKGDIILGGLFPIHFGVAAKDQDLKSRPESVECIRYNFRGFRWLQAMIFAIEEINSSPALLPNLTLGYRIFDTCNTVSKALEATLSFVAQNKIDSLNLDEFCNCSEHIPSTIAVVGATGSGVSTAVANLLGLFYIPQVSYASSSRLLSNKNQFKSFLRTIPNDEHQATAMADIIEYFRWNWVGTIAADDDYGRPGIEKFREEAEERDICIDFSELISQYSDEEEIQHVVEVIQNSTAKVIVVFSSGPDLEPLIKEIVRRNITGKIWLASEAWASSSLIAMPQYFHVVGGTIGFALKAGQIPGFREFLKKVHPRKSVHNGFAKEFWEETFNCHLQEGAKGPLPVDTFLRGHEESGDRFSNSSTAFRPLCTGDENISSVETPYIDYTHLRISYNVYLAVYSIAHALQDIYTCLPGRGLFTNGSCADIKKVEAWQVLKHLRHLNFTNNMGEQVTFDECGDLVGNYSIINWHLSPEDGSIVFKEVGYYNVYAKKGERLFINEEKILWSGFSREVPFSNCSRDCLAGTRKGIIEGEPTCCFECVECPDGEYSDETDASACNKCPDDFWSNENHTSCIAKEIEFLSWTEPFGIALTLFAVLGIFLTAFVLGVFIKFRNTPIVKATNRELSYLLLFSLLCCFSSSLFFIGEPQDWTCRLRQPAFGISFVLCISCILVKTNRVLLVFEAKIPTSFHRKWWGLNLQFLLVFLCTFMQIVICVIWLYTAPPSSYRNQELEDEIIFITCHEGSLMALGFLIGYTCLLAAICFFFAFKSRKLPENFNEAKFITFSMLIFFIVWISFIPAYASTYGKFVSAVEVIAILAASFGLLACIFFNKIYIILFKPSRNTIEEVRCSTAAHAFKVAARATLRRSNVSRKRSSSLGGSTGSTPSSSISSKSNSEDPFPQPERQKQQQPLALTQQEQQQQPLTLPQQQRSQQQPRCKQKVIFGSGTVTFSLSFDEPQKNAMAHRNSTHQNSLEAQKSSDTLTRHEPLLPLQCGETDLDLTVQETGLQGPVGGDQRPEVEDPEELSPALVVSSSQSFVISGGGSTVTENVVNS
# [2] = system: lymphoid cell line / multiple cell lines; settings: cited from earlier work
# [3] = system: Lin− cells; assay: Cell death in 2nd stage induction culture; type: cell-based, mouse; settings: about 15 nM, 6 hr in the 2nd stage
# From the text: Use of HDAC inhibitors may take into account the fact that high dose and/or long period of HDAC inhibition may induce widespread changes in gene expression. For example, treatment of metanephric organs cultures with HDAC inhibitor induces significant disturbance in the transcription network (Chen et al., 2007).
# [4] = system: cadherin 6, cadherin 16, Lim1, Gdnf and Pax2 promoters; assay: ChIP assay of histone acetylation on renal gene promoters; type: cell-based, mouse; settings: TSA 15 nM, 6 h at 2nd stage vs vehicle; ChIP after 3rd stage
# From the text: Increased histone acetylation accompanies cell conversion. To begin to understand the mechanisms of cell conversion and its associated nuclear reprogramming, the inventors examined the possibility of epigenetic regulation by histone modifications and chromatin remodeling. Chromatin modifications were detected using chromatin immunoprecipitation assays (ChIP assays) as described (Shang et al., 2000). Antibodies to acetylated histones H3 and H4 and tri-methylated histone H3 (lysine 9 or K9) were used for immunoprecipitation. […] In contrast, there was no change in tri-methylation of H3K9 on the cadherin 6 promoter (top panel). Acetylation of H3 but not H4 on the cadherin 16 promoter was increased after the 3rd stage. Tri-methylation of H3K9 on the cadherin 16 promoter seemed to increase after the 3rd stage.
# (§1) The HDAC inhibitor TSA increases expression of renal developmentally regulated genes in induced cells. Although HDAC inhibitor trichostatin A (TSA) is a non-selective inhibitor of HDACs, TSA only alter 2-10% of the genes tested in multiple cell lines (Gray et al., 2004; Lee et al., 2006b; Mitsiades et al., 2004; Peart et al., 2005).
# [5] = system: bone marrow stem cells; settings: Tayaramma et al., 2006; cited from earlier work
# [6] = system: HDAC; settings: Vigushin et al., 2001, cited from earlier work
# [7] = system: Lin− cells isolated from cre^ksp; R26R-EYFP mice; assay: Flow cytometry of EYFP+ cells (renal cell conversion); type: cell-based, mouse; settings: TSA 15 nM, 6 h at 2nd stage
# Experimental: To confirm renal conversion, Lin^− cells were isolated from bitransgenic creksp; R26R-EYFP mice that express EYFP specifically in the tubular epithelial cells of the kidney. […] However, after the 3rd stage, the induced cells expressed EYFP mRNA by RT-PCR analysis (FIG. 7B) and EYFP protein by immunostaining (FIG. 7C).
# Treatment with TSA results in a 6-fold increase in EYFP^+ cells. Lin^− cells isolated from cre^ksp; R26R-EYFP mice were treated with vehicle or TSA (15 nM, 6 h) at the 2nd stage and EYFP^+ cells were quantified by flow cytometry analysis.
# [8] = system: Lin− cells; assay: qRT-PCR of renal developmentally regulated genes in induced cells; type: cell-based, mouse; settings: TSA 15 nM, 6 h at 2nd stage vs vehicle, cells after 3rd stage
# Experimental: Lin^− cells, which include lineage undifferentiated hematopoietic stem cells and progenitor cells, were isolated to 99.8% purity by FACS as described (Lin et al., 2003). Purified Lin^− cells were cultured sequentially in the presence of cytokines including IL-3, IL-6, and stem cell factor for 48 hr (1st stage); nephrogenic factors including retinoic acid, activin-A and BMP7 for 48 hr (2nd stage); and epithelial growth factors including EGF, IGF-1 and HGF for 72 hr (3rd stage). The total induction period is 1 week. Cytokine treatment is known to stimulate HSC to enter the cell cycle and the cells remain as hematopoietic cells after 48 hr in these culture conditions (Luskey et al., 1992; Reddy et al., 1997). The nephrogenic factors that were used can induce differentiation of mouse ES cells into renal epithelial cells as reported by Kim and Dressler (2005). Therefore, the inventors reasoned that nephrogenic factors might induce cycling Lin^− cells to select a renal cell fate. Further treatment of the cells with epithelial growth factors would promote epithelial growth. After the 1st stage, the cells remained small, round, and discrete (FIG. 5B, top left). After the 3rd stage, the cells increased in size and formed floating spheres (FIG. 5B, top right). The inventors took the precaution of only transferring cells in suspension to new culture dishes. The adherent cells that might represent bone marrow stromal/stem cells (MSC) were discarded. In some experiments, the inventors continued the cultures for an additional 7 days after the induction period (total 14 days) and observed an epithelial-like morphology in the cells (FIG. 5B, bottom). In the Examples section, the inventors will use the term “induced cells” to refer to cells after the 3rd stage culture (1 week induction).
# as §1
SMILES,monocyte migration in response to calcium [1],"proportion of expressed genes altered ([2]; 340 expressed genes in a lymphoid cell line, Van Lint et al., 1996)","proportion of genes tested altered ([2]; multiple cell lines, literature)",cell death [3],histone H3 and H4 acetylation on promoters of renal genes [4],differentiation of insulin-producing cells [5],IC50 of inhibition of HDAC activity [6],reversibility of inhibition of HDAC activity ([6]; in cell cultures and in vivo),increase in EYFP+ cells (cell conversion) vs vehicle [7],"EYFP+ cells after the 3rd stage ([7]; flow cytometry, vehicle group 6.3%)","Cdh 6 -Fold increase ([8]; *p<0.05, n=3)","Cdh 16 -Fold increase ([8]; *p<0.05, n=3)","Gdnf -Fold increase ([8]; *p<0.05, n=3)","Lim1 -Fold increase ([8]; *p<0.05, n=3)","Osr 1 -Fold increase ([8]; *p<0.05, n=3)","Pax2 -Fold increase ([8]; *p<0.05, n=3)","18s RNA -Fold increase ([8]; control gene, n=3)",Six2 -Fold increase ([8]; n=3)
COc1cccc([C@@H](C)NCCCc2ccccc2)c1 [NPS R-467],increases,–,–,–,–,–,–,–,–,–,–,–,–,–,–,–,–,–
"CC(/C=C/C(=O)NO)=C\[C@@H](C)C(=O)c1ccc(N(C)C)cc1 [TSA, trichostatin A]",–,2%,2-10%,no increase in cell death,increased histone H3 and H4 acetylation,led to differentiation of insulin-producing cells,nanomolar range,reversible,6 fold,37.9%,16.5* Fold,4.39* Fold,5.39* Fold,8.29* Fold,14.95* Fold,3.28* Fold,−0.06 Fold,1.3 Fold
